Patent US9539249B2, “PPAR gamma agonists for treatment of multiple sclerosis” (InteKrin Therapeutics, Inc., priority 2013, dated 2017)
Entries after “also recorded” stand apart in the source; their conditions may differ. Like-named read-outs stand apart in the source and are kept apart here.

Legend:
[1] = tested on: EAE; experiment: EAE relapse model, INT131 treatment begun at first remission; assay type: in vivo, mice; settings: for clinical course from the 22nd day following immunization: treated from day 20, vehicle animals relapsed; for relapse rate (percent of animals relapsed): 25th day post-immunization, vehicle 72 percent
Excerpt: EAE is a well-characterized and widely used model of MS. It is one of the few animal models in which drug therapeutic activity in the model often mimics and anticipates the drug's effects in human disease. In this model, mice are immunized with well-defined antigenic fragments of central nervous system myelin, such as fragments of the proteolipid protein (PLP). Over the course of 2 to 3 weeks the immunized animals develop a clinical and histopathologic syndrome of T-cell mediated cerebral autoimmunity that is highly reminiscent of relapsing/remitting MS (RRMS). The similarities between EAE and RRMS include inflammatory cerebral infiltrated and accompanying Th1/Th17 responses to both the disease initiating myelin PLP peptide, and subsequent epitope spread, seen in disease relapse. The animals were immunized with the myelin peptide (PLP^139-151) and the spread epitope peptide (PLP^178-191) which drives disease relapse. Studies consisted of three experimental arms in which the mice were given daily ip injection of vehicle, or either 1 or 3 mg/kg/d of INT131. Following immunization, the animals underwent daily neurological evaluation by an experienced investigator. In these studies treatment began at the time of the first remission. […] Following the expected clinical disease peak at about two weeks post-immunization, symptoms began to ebb as the animals drifted into remission. All of the animals were treated with INT131 on day 20. By the 22nd day following immunization relapse began as expected, however, only in the vehicle treated animals.

[2] = Tissue distribution of [3H]INT131 after intraperitoneal injection (penetration of the intact BBB); assay type: in vivo, Sprague-Dawley rats; settings: for concentration at 6 h: 6 h after ~50 mg/kg ip; for concentration at 24 h: 24 h after ~50 mg/kg ip
Description: (§1) To test whether INT131 is able to penetrate the intact BBB INT131 was radiolabeled with tritium (“[^3H]INT131”), prior to intraperitoneal injection into adult Sprague-Dawley rats. The purity of the radiolabeled INT131 was determined by high-performance liquid chromatography (HPLC) fractionation prior to injection, and again at the close of the experiment. […] The test animals were sacrificed at 1, 6 and 24 hours after injection and blood, brain, cerebrospinal fluid (“CSF”), spinal cord, kidney, liver and small bowel were harvested for determination of [^3H]INT131 content by liquid scintillography.

[3] = tested on: infiltrating CD45-positive leukocytes; experiment: CD45-positive leukocyte infiltration in brainstem of EAE mice treated at the peak of disease; assay type: in vivo
Excerpt: Initiating INT131 treatment during remission extends the time subjects remain relapse-free, as compared to vehicle/placebo treatment. However, because there is little active neuroinflammation during remission, this paradigm is not informative about the effects of INT131 on acute neuroinflammation. To better understand the effects of INT131 on the acute inflammatory response we treated mice with EAE at the height of the clinical disease. […] INT131 treatment was begun at the peak of disease (day 20) and brainstems were harvested at day 32, and stained with αCD45 to identify infiltrating leukocytes. CD45 (also known as Leukocyte Common Antigen) is expressed on all hematopoietic cells except erythrocytes and platelets, and is required for B- and T cell-receptor-mediated activation. Thus, CD45 is critical in mediating the inflammatory process. […] These findings unify the clinical and histological findings that INT131 is a potent and effective treatment of acute neuroinflammation in this model of RRMS.

[4] = HPLC fractionation of radiolabeled INT131 before injection and at the close of the experiment; assay type: physicochemical; settings: prior to injection and at the close of the experiment
Description: as §1

[5] = Sprague-Dawley, CSF, intraperitoneal, rat, read-out: INT131 concentration in CSF
[6] = Sprague-Dawley, blood, intraperitoneal, rat, read-out: INT131 concentration in Blood
[7] = Sprague-Dawley, brain, intraperitoneal, rat, read-out: INT131 concentration in Brain
[8] = Sprague-Dawley, kidney, intraperitoneal, rat, read-out: INT131 concentration in Kidney
[9] = Sprague-Dawley, liver, intraperitoneal, rat, read-out: INT131 concentration in Liver
[10] = Sprague-Dawley, small bowel, intraperitoneal, rat, read-out: INT131 concentration in Small bowel
[11] = Sprague-Dawley, spinal cord, intraperitoneal, rat, read-out: INT131 concentration in Spinal cord

In the case of `O=S(=O)(Nc1cc(Cl)c(Oc2cnc3ccccc3c2)c(Cl)c1)c1ccc(Cl)cc1Cl` [INT131], the “clinical course from the 22nd day following immunization” value ([1]; 1 mg/kg) is reported as “continued to improve slightly”, the “relapse rate (percent of animals relapsed)” value ([1]; 1 mg/kg/d ip) is reported as 9% and the “clinical course from the 22nd day following immunization” value ([1]; 3 mg/kg) is reported as “remained stable”. The “relapse rate (percent of animals relapsed)” value ([1]; 3 mg/kg/d ip) was 16%, the “disease burden among treated animals that relapse” value ([1]; in comparison to vehicle treated mice) was “exceptionally mild” and the “symptoms of animals with EAE” value ([1]; mouse, in vivo) was “becoming and remaining mostly symptom-free”. For the same compound, the effect on relapse ([1]; treatment begun at first remission) was “virtually blocks relapse”, the concentration at 1 h ([2]; Sprague-Dawley, CSF, intraperitoneal, 1 h after ~50 mg/kg ip, rat, read-out: INT131 concentration in CSF) was 292 ng/g and the concentration at 6 h [2, 5] was 2860 ng/g. The concentration at 24 h [2, 5] was 5300 ng/g, the concentration at 1 h ([2]; Sprague-Dawley, blood, intraperitoneal, 1 h after ~50 mg/kg ip, rat, read-out: INT131 concentration in Blood) was 4050 ng/g and the concentration at 6 h [2, 6] was 41800 ng/g. The concentration at 24 h [2, 6] was 17900 ng/g, the concentration at 1 h ([2]; Sprague-Dawley, brain, intraperitoneal, 1 h after ~50 mg/kg ip, rat, read-out: INT131 concentration in Brain) was 569 ng/g and the concentration at 6 h [2, 7] was 5980 ng/g. For the same compound, the concentration at 24 h [2, 7] was 4650 ng/g, the concentration at 1 h ([2]; Sprague-Dawley, kidney, intraperitoneal, 1 h after ~50 mg/kg ip, rat, read-out: INT131 concentration in Kidney) was 7730 ng/g and the concentration at 6 h [2, 8] was 32900 ng/g. For the same compound, the concentration at 24 h [2, 8] was 15400 ng/g, the concentration at 1 h ([2]; Sprague-Dawley, liver, intraperitoneal, 1 h after ~50 mg/kg ip, rat, read-out: INT131 concentration in Liver) was 24400 ng/g and the concentration at 6 h [2, 9] was 141000 ng/g. The concentration at 24 h [2, 9] was 36400 ng/g, the Kp at 6 h ([2]; Sprague-Dawley, rat, brain and spinal cord relative to blood, intraperitoneal, 50 mg/kg, 6 hours after injection, read-out: level of INT131 in brain and spinal cord relative to the level found in blood) was about 0.1 and the concentration at 1 day ([2]; Sprague-Dawley, rat, brain and spinal cord, intraperitoneal, 50 mg/kg, 1 day after injection, read-out: absolute amount of INT131 in the brain and spinal cord) was over 4000 ng/g. It also gave a concentration at 1 h ([2]; Sprague-Dawley, rat, neural compartments (brain tissue), intraperitoneal, one hour after single administration of ~50 mg/kg, read-out: average amount of INT131 in the neural compartments) of under 500 ng/g, a Kp at 24 h ([2]; Sprague-Dawley, rat, neural tissues relative to circulation (blood), intraperitoneal, 50 mg/kg, 24 hours after injection, read-out: level of INT131 in neural tissues relative to that found in the circulation) of 0.25 and a concentration at 1 h ([2]; Sprague-Dawley, small bowel, intraperitoneal, 1 h after ~50 mg/kg ip, rat, read-out: INT131 concentration in Small bowel) of 19700 ng/g. The concentration at 6 h [2, 10] was 223000 ng/g, the concentration at 24 h [2, 10] was 34500 ng/g and the concentration at 1 h ([2]; Sprague-Dawley, spinal cord, intraperitoneal, 1 h after ~50 mg/kg ip, rat, read-out: INT131 concentration in Spinal cord) was 478 ng/g. The concentration at 6 h [2, 11] was 4810 ng/g, the concentration at 24 h [2, 11] was 4310 ng/g and the “increase of the amount of INT131 in the neural tissues versus 1 hour” value ([2]; at 6 and 24 hours) was “approximately 10 fold”. For the same compound, the “amount in neural compartments, fold less than that found in the circulation” value ([2]; one hour after single administration of ~50 mg/kg) was “approximately 10 fold”, the clinical symptoms ([3]; treatment at the height of clinical disease) was “rapid improvement in clinical symptoms” and the “infiltrating CD45-positive leukocytes in brainstem” value ([3]; treatment from day 20 (peak of disease), brainstems harvested day 32, either concentration, compared to vehicle) was “paucity of infiltrating CD45-positive leukocytes; also recorded: paucity of infiltrating white cells”.
For `O=S(=O)(Nc1cc(Cl)c(Oc2cnc3ccccc3c2)c(Cl)c1)c1ccc(Cl)cc1Cl` [[^3H]INT131], the “stability of radiolabeled material over the course of the study (HPLC)” value [4] was “virtually all of the radiolabeled material was found in a single peak”.
